Laboratory results from patent US11524003B2, “Alpha-amino esters of hydroxypropylthiazolidine carboxamide derivative and salt form, crystal polymorph thereof” (ObsEva S.A., priority 2016, dated 2022).

Assays:
[1] = Stability in HBSS buffer of the Caco-2 experiments; format: in vitro ADME; conditions: HBSS buffer (2% DMSO final concentration) at 37° C. for 60 and 120 minutes
Experimental: Stability of both compound I and compound II was assessed during the test. […] An aliquot of each solution was sampled at time zero (t=0) to assess the starting concentrations of the compounds. The solutions were incubated at 37° C. for the duration of the transport experiment. An aliquot of each solution was sampled at the end of experiment (t=120) to assess the final concentrations of compound I and compound II. Samples were analyzed by LC-MS.

Caco-2 cell monolayer = test: Bidirectional permeability across Caco-2 cell monolayers; format: in vitro ADME, human
Experimental: (§1) Compound I was dissolved in HBSS buffer (1% DMSO final concentration) at the concentrations of 1.5, 3 and 6 μM. Each concentration/sampling time was run in duplicate well. The test was performed in a gradient pH: the apical compartment (mucosal) was at pH 6.5, the basolateral compartment (serosal) was at pH 7.4.
(§2) Apical to basolateral (A→B, mucosal to serosal) transport: 200 μL of each concentration of compound I was added to the apical compartment and 400 μL of HBSS was added to the basolateral compartment. The plates were incubated at 37° C. An aliquot of the basolateral compartment was sampled after 60 and 120 min (t=60 and t=120). An aliquot of the apical compartment was sampled at the starting time (t=0) and after 120 min. (t=120).
(§3) Basolateral to apical (B→A, serosal to mucosal) transport: 400 μL of each concentration of compound I was added to the basolateral compartment and 200 μL of HBSS was added to the apical compartment. The plates were incubated at 37° C. An aliquot of the apical compartment was sampled after 60 and 120 min (t=60 and t=120). An aliquot of the basolateral compartment was sampled at the starting time (t=0) and after 120 min. (t=120). All samples were analyzed by LC/MS monitoring both compound I and the appearance of compound II.
as §1, with “II” for “I”
as §2, with “II” for “I”
as §3, with “of compound II was added” for “of compound I was added”, “LC/MS monitoring compound II.” for “LC/MS monitoring both compound I and the appearance of compound II.”

[2] = test system: proinflammatory proteins (COX-2, p-cPLA2, p-p65, p-p38, p-ERK); test: Western blot of proinflammatory proteins in human myometrial and amnion biopsies
Experimental: FIG. 79a is a Western blot showing the effects of oxytocin, nolasiban, and a combination thereof on the expression of phosphorylated p65 (p-p65), phosphorylated p38 (p-p38), and phosphorylated extracellular signal-regulated kinase (p-ERK) in N=6 term, pre-laboring myometrial biopsies collected from human female subjects undergoing caesarean section delivery. Samples were either unstimulated (“NS”), stimulated with oxytocin (“OT”), treated with nolasiban at a concentration of 1 μM, or treated with both oxytocin and nolasiban at a concentration of 1 μM for the indicated periods of time. A blot against β-actin was performed as a control. FIG. 79b is a Western blot showing the effects of oxytocin and/or varying concentration of compound II, optionally in combination with nolasiban, on the expression of p-p65, p-p38, and p-ERK in N=6 term, pre-laboring myometrial biopsies collected from human female subjects undergoing caesarean section delivery. Samples were either unstimulated (“NS”), stimulated with oxytocin (“OT”), treated with compound II at a concentration of 3 μM, or treated with both oxytocin and compound II at varying concentrations of compound II, both in the presence and absence of nolasiban at a concentration of 1 μM for the indicated periods of time. A blot against β-actin was performed as a control. […]

O=C(N[C@@H](CCO)c1ccc(F)cc1)[C@@H]1SCCN1S(=O)(=O)c1ccc(-c2ccccc2)cc1 [Compound II, 3-([1,1′-biphenyl]-4-ylsulfonyl)-N-[1-(4-fluorophenyl)-3-hydroxypropyl]-1,3-thiazolidine-2-carboxamide]
Stability in HBSS buffer [1]: stable
Efflux (Caco-2 cell monolayer): No efflux was detected
Passive passage through the Caco-2 monolayer (Caco-2 cell monolayer): good passive passage
Passage apical to basolateral (Caco-2 cell monolayer; A→B): good percentage of passage
Permeability from basolateral to apical compartment (Caco-2 cell monolayer; B→A): low rate of permeability
Expression of proinflammatory proteins [2]: capable of reducing the expression of various proinflammatory proteins
